Source: patent US5446039A, “Therapeutic benzazapine compounds” (Imperial Chemical Industries, PLC, priority 1991, dated 1995)

Columns and labels:
[1] = system: NMDA receptor channel complex; test: inhibition of glutamate evoked contractions of the guinea pig ileum (longitudinal muscle/myenteric plexus); assay type: cell-based; conditions: 100 μM glutamate; test compound added 5 minutes before the glutamate
Description: (§1) The actions of compounds of formula I as antagonists at the glycine receptor of the NMDA receptor complex can be shown by standard tests such as the [^3 H]-glycine binding assay, by functional assays in vitro such as tests for measuring glutamate evoked contractions of the guinea pig ileum, and by tests in vivo such as ischemia induced by carotid occlusion in the gerbil model.
For glutamate evoked contractions of the guinea pig ileum, the methodology is as described previously (Luzzi et. al., Br. J. Pharmacol., 95, 1271-1277 (1989). The longitudinal muscle and associated myenteric plexus are removed and placed in oxygenated modified Krebs-Henseleit solution (118 mM NaCl, 4.7 mM KCl, 2.5 mM CaCl2, 1.2 mM KH2 PO4, 25 mM NaHCO3, and 11 mM glucose). Tissues are suspended on glass rods in organ baths under a resting tension of 0.5 g. After an initial depolarization with 80 mM potassium to remove possible blockade of the NMDA receptor channel complex with magnesium, twitch responses are evoked with 100 μM glutamate. Isometric mechanical responses are recorded. Tissues are equilibrated for at least 2 hours prior to addition of compounds.
A dose response curve for the effect of the unknown on the magnitude of the glutamate-evoked contractions is generated. Glutamate-evoked contractions are generated at 20 minute intervals, with the test compound added 5 minutes before the glutamate. […]

[2] = target: T1, glycine receptor of the NMDA receptor complex (Rattus norvegicus, UniProt P35439); test: [3H]-glycine binding assay at the N-methyl-D-aspartate receptor, rat neuronal synaptic membranes (cortices and hippocampi); set-up: species or system male Sprague-Dawley rats; conditions: 20 nM [3H]-glycine, pH 7.1, 30 minutes at 4° C.
T1 construct: Freshly dissected cortices and hippocampi are homogenized in 0.32 M sucrose; from tissue; host or cells: synaptic membranes of cortices and hippocampi of adult male Sprague-Dawley rats
Experimental: as §1
In the [^3 H]-glycine binding assay, neuronal synaptic membranes are prepared from adult (about 250 g) male Sprague-Dawley rats. Freshly dissected cortices and hippocampi are homogenized in 0.32 M sucrose (110 mg/mL). Synaptosomes are isolated by centrifuga-tion (1000×g, 10 min), the supernatant is pelleted (20,000×g, 20 min) and resuspended in double-distilled water. The suspension was centrifuged for 20 minutes at 8,000×g. The resulting supernatant and buffy coat are washed twice (48,000×g, 10 mins, resuspension in double-deionized water). The final pellet is quickly frozen (dry iceethanol bath) under double-deionized water and stored at -70° C.
On the day of the experiment, thawed synaptic membranes are homogenized with a Brinkmann Polytron (tm, Brinkmann Instruments, Westbury, N.Y.) tissue homogenizer in 50 mM tris(hydroxymethyl)aminomethane citrate, pH 7.1. The membranes are incubated with 0. 04% Sufact-AMPS X100 (tm, Pierce, Rockford, Ill.) in buffer for 20 minutes at 37° C. and washed six times by centrifugation (48,000×g, 10 min) and resuspended in buffer. The final pellet is homogenized at 200 mg wet weight/mL of the buffer for the binding assay.
For [^3 H]-glycine binding at the N-methyl-D-aspartate receptor, 20 nM [^3 H]-glycine (40-60 Ci/mmol, New England Nuclear, Boston, Mass.) is incubated with the membranes suspended in 50 mM tris (hydroxymethyl)aminomethane citrate, pH 7.1 for 30 minutes at 4° C. Glycine, 1 mM, is used to define the nonspecific binding. […] Radioactivity is estimated by liquid scintillation counting. […]

[3] = system: neuronal damage in the hippocampus; test: gerbil ischemic model (bilateral carotid occlusion), hippocampal neuronal damage rating; assay type: in vivo, adult female Mongolian gerbils
Description: as §1
When testing in vivo using the gerbil ischemic model, adult female Mongolian gerbils (50-70 g) are anesthetized with 2 to 3% halothane. The bilateral common carotid arteries at the neck are exposed and occluded with microaneurysm clips. After 10 min (unless specified), the clips are removed and the blood flow through the carotid arteries is restored and the skin is sutured. Test compounds are administered intraperitoneally both pre- and post-occlusion, for example 45 minutes before and 5 minutes after occlusion of the carotid arteries. Sham-operated animals are treated in the same manner except that the arteries are not clamped. Gross behavioral observations along with motor activity are recorded for 2 hr on the first (24 hr) day following the occlusion. After 4 days, subjects are sacrificed (decapitation), brains are removed, fixed, sectioned and stained with hematoxylin/eosin and cresyl violet.
The brain sections are rated for neuronal damage in the hippocampus using the following rating scale:
1=slight damage (up to 25%)--restricted CA1/subiculum border
2=moderate damage (up to 50%)--obvious damage, restricted to less than half of CA1 field
3=marked damage (up to 75%)--involving greater than half of CA1 field
4=damage extending beyond CA1 field
Results can be reported as the percentage of neuroprotection afforded by a particular dose and dosing regimen.
Sections (7 micron) are evaluated from each brain. Occasionally, asymmetrical damage may be noted and the rating assigned is the average score of the two sides. The average brain damage rating score for each group is recorded, and the damage scores of the drug treated group are compared to the vehicle-treated group using Wilcoxcon-Rank Sum test.
Typical values in this test for compounds according to the invention are illustrated by the following results: for the compound of Example 1, 57% neuroprotection (relative to sham-operated control) when dosed twice with 20 mg/kg body weight intraperitoneally (ip) according to the above regimen; 44% neuroprotection when dosed with 30 mg/kg body weight ip three times at 15, 30, and 45 minutes after induction of ischemia; for the compound of Example 3, 83% neuroprotection when dosed twice with 30 mg/kg body weight ip according to the above regimen; for the compound of Example 1a, 78% neuroprotection when dosed twice with 20 mg/kg body weight ip according to the above regimen.

[4] = dosed twice with 20 mg/kg ip, pre- and post-occlusion (e.g. 45 min before and 5 min after), Example 1: relative to sham-operated control

O=c1[nH]c2cc(Cl)ccc2c(=O)cc1O [Example 1, 8-Chloro-2,5-dihydro-2,5-dioxo-3-hydroxy-1H-benz[b]azepine]
IC50 [1]: 110 nM
IC50 [2]: 30 nM
neuroprotection ([3]; 30 mg/kg ip three times at 15, 30, and 45 minutes after induction of ischemia): 44%
neuroprotection [3, 4]: 57%

COc1cc(=O)c2ccc(Cl)cc2[nH]c1=O [Example 1a, 8-Chloro-2,5-dihydro-2,5-dioxo-3-methoxy-1H-benz[b]azepine]
IC50 [2]: 1000 nM
neuroprotection [3, 4]: 78%

O=c1[nH]c2cc(Br)ccc2c(=O)cc1O [Example 3, 8-bromo-2,5-dihydro-2,5-dioxo-3-hydroxy-1H-benz[b]azepine]
IC50 [1]: 1000 nM
IC50 [2]: 97 nM
neuroprotection ([3]; dosed twice with 30 mg/kg ip, pre- and post-occlusion (e.g. 45 min before and 5 min after)): 83%
